Source: US7026296B2, “Methods of treating dry eye disorders” (Alcon, Inc., priority 2002, dated 2006)
pIC50: −log10 of the molar value.

What was measured:
[1] = system: IL-6 production from CEPI-17 cells; assay: Inhibition of hyperosmolarity-induced IL-6 production from human corneal epithelial cells in vitro; type: cell-based; conditions: Corneal epithelial cell, 1 hour pre-treatment, hypertonic KGM-HC (additional 80 mM NaCl) 6 hours, ELISA, normalized by dsDNA
Description: (§1) Inhibition of Hyperosmolarity-Induced Cytokine Production from Human Corneal Epithelial Cells in vitro.
(§2) The ocular tear film in dry eye is abnormally hyperosmolar, which is irritating to ocular surface cells. Treatment of human conjunctival epithelial cells with a hypertonic media elicits the production of pro-inflammatory cytokines. A selective JNK inhibitor, anthra[1,9-cd]pyrazol-6(2H)-one, was evaluated for inhibition of hyperosmolarity-induced cytokine secretion from the transformed human corneal epithelial cell line, CEPI-17.CEPI-17 cells were grown in complete isotonic Keratinocyte Growth Medium (iso KGM) and plated in 48-well plates in iso KGM without hydrocortisone (iso KGM-HC). When the cells reached confluence, they were pre-treated for 1 hour with the compound at the indicated concentration in iso KGM-HC. The cells were then stimulated by hypertonic KGM-HC for 6 hours (additional 80 mM NaCl added in iso KGM-HC) in the presence of the compound. Aliquots of the supernatants were assayed for IL-6,IL-8 by ELISA. Cytokine release was normalized by the amount of double stranded DNA (dsDNA) extracted from the cells. Percent inhibition of cytokine production was calculated by comparison with cytokine levels in vehicle-treated cells.

[2] = system: IL-8 production from CEPI-17 cells; assay: Inhibition of hyperosmolarity-induced IL-8 production from human corneal epithelial cells in vitro; type: cell-based; conditions: Corneal epithelial cell, 1 hour pre-treatment, hypertonic KGM-HC (additional 80 mM NaCl) 6 hours, ELISA, normalized by dsDNA
Description: as §1, §2

Compound O=C1c2ccccc2-c2n[nH]c3cccc1c23 [SP-600125, anthra[1,9-cd]pyrazol-6(2H)-one] has a pIC50 [1] of 4.90 and a pIC50 [2] of 5.43.
